Consider one compound from article PMC7730863 (Journal of medicinal chemistry, 2020).

The target in this test is EGFR-L858R/T790M (Homo sapiens, UniProt P00533, L858R/T790M). The experiment in a line: radiolabeled 33P. The class given is biochemical. As to conditions: statement in text referring to Table 1.
EGFR-L858R/T790M, sequence (P00533 25-1210 T790M/L858R): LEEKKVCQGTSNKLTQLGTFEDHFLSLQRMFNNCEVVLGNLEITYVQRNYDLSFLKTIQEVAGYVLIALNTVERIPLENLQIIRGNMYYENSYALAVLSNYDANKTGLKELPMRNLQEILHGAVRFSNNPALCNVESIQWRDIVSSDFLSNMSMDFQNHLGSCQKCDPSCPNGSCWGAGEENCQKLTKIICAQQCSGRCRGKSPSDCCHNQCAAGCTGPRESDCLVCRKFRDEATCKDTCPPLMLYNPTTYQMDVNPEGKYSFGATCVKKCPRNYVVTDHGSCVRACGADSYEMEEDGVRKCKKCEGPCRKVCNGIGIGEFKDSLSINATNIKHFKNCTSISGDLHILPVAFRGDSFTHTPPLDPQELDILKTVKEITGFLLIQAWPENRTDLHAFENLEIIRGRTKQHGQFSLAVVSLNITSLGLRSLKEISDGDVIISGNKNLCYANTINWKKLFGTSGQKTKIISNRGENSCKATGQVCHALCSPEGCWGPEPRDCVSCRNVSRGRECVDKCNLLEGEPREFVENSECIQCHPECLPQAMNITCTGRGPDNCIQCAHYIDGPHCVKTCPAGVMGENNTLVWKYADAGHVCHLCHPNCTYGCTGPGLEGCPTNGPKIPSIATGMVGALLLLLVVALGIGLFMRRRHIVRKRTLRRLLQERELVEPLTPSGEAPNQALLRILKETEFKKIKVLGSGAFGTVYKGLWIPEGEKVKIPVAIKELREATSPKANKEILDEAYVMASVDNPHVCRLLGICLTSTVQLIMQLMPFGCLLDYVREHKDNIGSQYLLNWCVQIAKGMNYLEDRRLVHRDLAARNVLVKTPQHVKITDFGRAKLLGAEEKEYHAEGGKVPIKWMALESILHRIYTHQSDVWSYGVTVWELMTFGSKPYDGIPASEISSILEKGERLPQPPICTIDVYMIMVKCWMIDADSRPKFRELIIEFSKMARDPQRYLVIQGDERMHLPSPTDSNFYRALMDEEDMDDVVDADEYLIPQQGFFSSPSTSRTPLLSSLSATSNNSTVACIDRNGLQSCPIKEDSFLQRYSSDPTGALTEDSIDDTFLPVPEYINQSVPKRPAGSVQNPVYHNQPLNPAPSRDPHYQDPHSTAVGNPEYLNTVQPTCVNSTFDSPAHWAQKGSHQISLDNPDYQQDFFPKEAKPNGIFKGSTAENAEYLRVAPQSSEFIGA

Turning to `C=CC(=O)Nc1ccc(OC)c(Nc2cc(-c3nc(SC)n(C)c3-c3ccc(F)cc3)ccn2)c1` [Compound 7, N-(3-((4-(5-(4-fluorophenyl)-1-methyl-2-(methylthio)-1H-imidazol-4-yl)pyridin-2-yl)amino)-4-methoxyphenyl)acrylamide], the “potency against EGFR(L858R/T790M), in words” value is “low nanomolar potency”.
